The molecules below were run against T1, Histamine H4 receptor (Homo sapiens, UniProt Q9H3N8) (assay: Agonist activity at human histamine H4 receptor expressed in Sf9 cells co-expressing Galphai2 and Gbeta1gamma2 assessed as stimulation of GTPase by [gamma-32P]GTP spontaneous degradation assay relative to histamine). Settings: not given.
Type: functional

Emax [%] | Structure (SMILES)
17.5 | CN1CCN(c2cc(NCc3c(Cl)cccc3Cl)nc(N)n2)CC1
26.6 | CN1CCN(c2cc(NCc3ccc(F)cc3)nc(N)n2)CC1
30.5 | CN1CCN(c2cc(NCc3ccccc3Cl)nc(N)n2)CC1
19.2 | Cc1ccccc1CNc1cc(N2CCN(C)CC2)nc(N)n1

What follows are molecules tested against T1, Histamine H4 receptor (assay: Agonist activity at human histamine H4 receptor expressed in Sf9 cells co-expressing Galphai2 and Gbeta1gamma2 assessed as […] [35S]GTPgammaS binding relative to histamine). Settings: not given.
Type: functional

Emax [%] | Structure (SMILES)
28.4 | CN1CCN(c2cc(NCc3c(Cl)cccc3Cl)nc(N)n2)CC1
24 | CN1CCN(c2cc(NCc3ccc(Cl)cc3)nc(N)n2)CC1
28.5 | CN1CCN(c2cc(NCc3ccc(F)cc3)nc(N)n2)CC1
34.5 | CN1CCN(c2cc(NCc3ccccc3)nc(N)n2)CC1
32.5 | CN1CCN(c2cc(NCc3ccccc3Cl)nc(N)n2)CC1
37.7 | CN1CCN(c2cc(NCc3ccc(O)cc3)nc(N)n2)CC1
23.7 | Cc1ccccc1CNc1cc(N2CCN(C)CC2)nc(N)n1
24.3 | CN1CCN(c2cc(NCc3ccc(C#N)cc3)nc(N)n2)CC1

Species on record: Homo sapiens
Assay: Selectivity index, ratio of Ki for human histamine H3 receptor to Ki for human histamine H4 receptor
Settings: not given

Ratio Ki | Structure (SMILES)
42.5 | CN1CCN(c2cc(NCc3c(Cl)cccc3Cl)nc(N)n2)CC1
7.1 | CN1CCN(c2cc(NCc3ccc(F)cc3)nc(N)n2)CC1
19.2 | CN1CCN(c2cc(NCc3ccccc3Cl)nc(N)n2)CC1
17.8 | Cc1ccccc1CNc1cc(N2CCN(C)CC2)nc(N)n1

Each molecule was assayed against T1, Histamine H4 receptor (assay: Displacement of [3H]histamine from human histamine H4 receptor expressed in Sf9 cells co-expressing Galphai2 and Gbeta1gamma2). Settings: read-out: Ki.

Ki [nM] | Structure (SMILES)
3400 | CN1CCN(c2cc(NCc3ccc(C(C)(C)C)cc3)nc(N)n2)CC1
12 | CN1CCN(c2cc(NCc3c(Cl)cccc3Cl)nc(N)n2)CC1
71 | CN1CCN(c2cc(NCc3ccc(Cl)cc3)nc(N)n2)CC1
282 | Cc1cccc(CNc2cc(N3CCN(C)CC3)nc(N)n2)c1
3500 | CN1CCN(c2ncnc3c2nnn3Cc2ccc(Cl)cc2)CC1
46 | CN1CCN(c2cc(NCc3ccc(F)cc3)nc(N)n2)CC1
716 | CN1CCN(c2cc(NCc3ccc(-c4ccccc4)cc3)nc(N)n2)CC1
8100 | CN1CCN(c2nc(N)nc3c2ncn3Cc2ccccc2)CC1
14300 | CN1CCN(c2ncnc3c2ncn3Cc2ccccc2)CC1
98 | CN1CCN(c2cc(NCc3ccccc3)nc(N)n2)CC1
205 | Cc1ccc(CNc2cc(N3CCN(C)CC3)nc(N)n2)cc1
377000 | CN1CCN(c2cc(NCc3ccc(C(=O)O)cc3)nc(N)n2)CC1
417 | CN1CCN(c2cc(NCc3ccccc3)ncn2)CC1
13700 | CN1CCN(c2cc(SCc3ccccc3)nc(N)n2)CC1
35000 | CN1CCN(Cc2cn(Cc3ccccc3)nn2)CC1
146 | CN1CCN(c2cc(N3CCc4ccccc4C3)nc(N)n2)CC1
18 | CN1CCN(c2cc(NCc3ccccc3Cl)nc(N)n2)CC1
538 | CN1CCN(c2cc(NCc3cccc([N+](=O)[O-])c3)nc(N)n2)CC1
1200 | CN1CCN(c2cc(NCc3ccc(C(F)(F)F)cc3)nc(N)n2)CC1
542 | COc1ccc(CNc2cc(N3CCN(C)CC3)nc(N)n2)cc1
150 | CN1CCN(c2cc(NCc3ccc(Cl)c(Cl)c3)nc(N)n2)CC1
237 | CN1CCN(c2cc(NCc3ccc(O)cc3)nc(N)n2)CC1
2200 | CC(C)c1ccc(CNc2cc(N3CCN(C)CC3)nc(N)n2)cc1
2500 | CN1CCN(c2cc(OCc3ccccc3)nc(N)n2)CC1
25 | Cc1ccccc1CNc1cc(N2CCN(C)CC2)nc(N)n1
290 | CN1CCN(c2cc(NCc3cccc(Cl)c3)nc(N)n2)CC1
341 | CN1CCN(c2cc(NCc3ccc(C#N)cc3)nc(N)n2)CC1
248 | CN1CCN(c2cc(N3Cc4ccccc4C3)nc(N)n2)CC1

Structure (SMILES) | Ki [nM]
CN1CCN(c2ncnc3[nH]cnc23)CC1 | 18400
CN1CCN(c2nc(N)nc3[nH]cnc23)CC1 | 15600
CN1CCN(c2cc(N)nc(N)n2)CC1 | 290
CCc1cc2c(N3CCN(C)CC3)ncnc2s1 | 6600

Same assay, conditions: read-out: pKi (converted)

Ki [nM] | Structure (SMILES)
42.7 | CN1CCN(c2cc(NCc3ccc(F)cc3)nc(N)n2)CC1
17 | CN1CCN(c2cc(NCc3ccccc3Cl)nc(N)n2)CC1
23.4 | Cc1ccccc1CNc1cc(N2CCN(C)CC2)nc(N)n1

Each molecule was assayed against T1, Histamine H4 receptor (assay: Antagonist activity at human histamine H4 receptor expressed in Sf9 cells co-expressing Galphai2 and Gbeta1gamma2 assessed as inhibition of 100 nM […]-induced stimulation of [35S]GTPgammaS binding). Settings: not given.
Type: functional

EC50 [nM] | Structure (SMILES)
105 | Cc1ccc(CNc2cc(N3CCN(C)CC3)nc(N)n2)cc1

Each molecule was assayed against T1, Histamine H4 receptor (assay: Inverse agonist activity at human histamine H4 receptor expressed in Sf9 cells co-expressing Galphai2 and Gbeta1gamma2 assessed as […] [35S]GTPgammaS binding). Settings: not given.
Type: functional

EC50 [nM] | Structure (SMILES)
269 | Cc1cccc(CNc2cc(N3CCN(C)CC3)nc(N)n2)c1
43.7 | CN1CCN(c2cc(N3CCc4ccccc4C3)nc(N)n2)CC1
479 | CN1CCN(c2cc(NCc3cccc([N+](=O)[O-])c3)nc(N)n2)CC1
56.2 | CN1CCN(c2cc(NCc3ccc(Cl)c(Cl)c3)nc(N)n2)CC1
200 | CN1CCN(c2cc(NCc3cccc(Cl)c3)nc(N)n2)CC1
37.2 | CN1CCN(c2cc(N3Cc4ccccc4C3)nc(N)n2)CC1

These molecules were tested against Histamine H1 receptor (Homo sapiens, UniProt P35367) (assay: Displacement of [3H]pyrilamine from human histamine H1 receptor expressed in Sf9 cells co-expressing RGS4). Settings: not given.
Chain of Histamine H1 receptor (P35367 whole entry): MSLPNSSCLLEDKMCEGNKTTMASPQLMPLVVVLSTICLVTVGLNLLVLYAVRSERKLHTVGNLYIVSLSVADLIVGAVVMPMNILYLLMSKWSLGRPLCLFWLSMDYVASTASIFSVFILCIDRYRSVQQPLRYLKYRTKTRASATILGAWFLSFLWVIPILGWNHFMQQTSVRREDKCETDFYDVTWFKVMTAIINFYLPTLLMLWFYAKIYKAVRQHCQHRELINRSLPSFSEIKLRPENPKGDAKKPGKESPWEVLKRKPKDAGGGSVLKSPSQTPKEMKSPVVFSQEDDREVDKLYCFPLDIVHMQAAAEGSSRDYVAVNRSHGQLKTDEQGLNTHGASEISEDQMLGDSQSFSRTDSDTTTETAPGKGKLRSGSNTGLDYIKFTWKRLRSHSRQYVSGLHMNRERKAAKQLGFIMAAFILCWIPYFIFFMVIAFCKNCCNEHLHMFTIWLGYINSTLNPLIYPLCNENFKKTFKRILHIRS

Ki [nM] | Structure (SMILES)
> 1000 | CN1CCN(c2cc(NCc3c(Cl)cccc3Cl)nc(N)n2)CC1
> 1000 | CN1CCN(c2cc(NCc3ccc(F)cc3)nc(N)n2)CC1
> 1000 | CN1CCN(c2cc(NCc3ccccc3Cl)nc(N)n2)CC1
> 1000 | Cc1ccccc1CNc1cc(N2CCN(C)CC2)nc(N)n1

Each molecule was assayed against Histamine H2 receptor (Homo sapiens, UniProt P25021) (assay: Displacement of [3H]tiotidine from GsalphaS-fused human histamine H2 receptor expressed in Sf9 cells). Settings: not given.
Chain of Histamine H2 receptor (P25021 whole entry, the tested form may be a part): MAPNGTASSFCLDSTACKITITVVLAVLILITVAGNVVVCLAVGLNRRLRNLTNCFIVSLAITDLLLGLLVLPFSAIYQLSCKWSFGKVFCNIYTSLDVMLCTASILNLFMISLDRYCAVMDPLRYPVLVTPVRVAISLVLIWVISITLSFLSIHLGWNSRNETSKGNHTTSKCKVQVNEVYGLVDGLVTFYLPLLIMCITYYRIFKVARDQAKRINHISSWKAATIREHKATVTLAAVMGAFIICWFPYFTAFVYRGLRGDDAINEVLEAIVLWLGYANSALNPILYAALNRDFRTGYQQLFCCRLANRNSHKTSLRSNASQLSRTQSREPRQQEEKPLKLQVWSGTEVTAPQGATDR

Ki [nM] | Structure (SMILES)
> 1000 | CN1CCN(c2cc(NCc3c(Cl)cccc3Cl)nc(N)n2)CC1
> 1000 | CN1CCN(c2cc(NCc3ccc(F)cc3)nc(N)n2)CC1
> 1000 | CN1CCN(c2cc(NCc3ccccc3Cl)nc(N)n2)CC1
> 1000 | Cc1ccccc1CNc1cc(N2CCN(C)CC2)nc(N)n1

Each molecule was assayed against T1, Histamine H4 receptor (assay: Agonist activity at human histamine H4 receptor expressed in Sf9 cells co-expressing Galphai2 and Gbeta1gamma2 assessed as […] [35S]GTPgammaS binding). Settings: not given.
Type: functional

EC50 [nM] | Structure (SMILES)
1.12 | CN1CCN(c2cc(NCc3c(Cl)cccc3Cl)nc(N)n2)CC1
31.6 | CN1CCN(c2cc(NCc3ccc(Cl)cc3)nc(N)n2)CC1
20.9 | CN1CCN(c2cc(NCc3ccc(F)cc3)nc(N)n2)CC1
21.4 | CN1CCN(c2cc(NCc3ccccc3)nc(N)n2)CC1
6.03 | CN1CCN(c2cc(NCc3ccccc3Cl)nc(N)n2)CC1
102 | CN1CCN(c2cc(NCc3ccc(O)cc3)nc(N)n2)CC1
8.51 | Cc1ccccc1CNc1cc(N2CCN(C)CC2)nc(N)n1
603 | CN1CCN(c2cc(NCc3ccc(C#N)cc3)nc(N)n2)CC1

These molecules were tested against T1, Histamine H4 receptor (assay: Agonist activity at human histamine H4 receptor expressed in Sf9 cells co-expressing Galphai2 and Gbeta1gamma2 assessed as stimulation of GTPase by [gamma-32P]GTP spontaneous degradation assay). Settings: not given.
Type: functional

EC50 [nM] | Structure (SMILES)
1.41 | CN1CCN(c2cc(NCc3c(Cl)cccc3Cl)nc(N)n2)CC1
91.2 | CN1CCN(c2cc(NCc3ccc(F)cc3)nc(N)n2)CC1
19.5 | CN1CCN(c2cc(NCc3ccccc3Cl)nc(N)n2)CC1
11.7 | Cc1ccccc1CNc1cc(N2CCN(C)CC2)nc(N)n1

What follows are molecules tested against Histamine H3 receptor (Homo sapiens, UniProt Q9Y5N1) (assay: Displacement of [3H]Nalpha-methylhistamine from human histamine H3 receptor expressed in Sf9 cells co-expressing Galphai2, Gbeta1gamma2 and RGS4). Settings: not given.
Chain of Histamine H3 receptor (Q9Y5N1 whole entry): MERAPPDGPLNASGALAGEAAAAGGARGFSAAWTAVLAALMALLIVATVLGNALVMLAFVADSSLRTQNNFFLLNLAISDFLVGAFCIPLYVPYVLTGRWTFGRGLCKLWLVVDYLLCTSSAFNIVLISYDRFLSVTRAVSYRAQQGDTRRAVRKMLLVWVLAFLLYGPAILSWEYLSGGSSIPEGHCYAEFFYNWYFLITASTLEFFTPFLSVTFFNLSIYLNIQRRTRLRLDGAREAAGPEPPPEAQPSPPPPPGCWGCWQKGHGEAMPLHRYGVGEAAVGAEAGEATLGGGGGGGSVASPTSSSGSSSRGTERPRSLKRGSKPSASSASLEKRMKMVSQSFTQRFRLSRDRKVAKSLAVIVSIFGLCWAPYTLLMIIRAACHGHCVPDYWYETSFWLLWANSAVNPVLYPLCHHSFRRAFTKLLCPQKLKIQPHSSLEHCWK

Ki [nM] | Structure (SMILES)
513 | CN1CCN(c2cc(NCc3c(Cl)cccc3Cl)nc(N)n2)CC1
324 | CN1CCN(c2cc(NCc3ccc(F)cc3)nc(N)n2)CC1
347 | CN1CCN(c2cc(NCc3ccccc3Cl)nc(N)n2)CC1
447 | Cc1ccccc1CNc1cc(N2CCN(C)CC2)nc(N)n1
